What all share (assay type): functional
The subject of assay [1] is Escherichia coli. Nature of the assay: Minimum inhibitory concentration in vitro against Escherichia coli NIHJ JC-2.
The subject of assay [2] is Staphylococcus aureus. The experiment in a line: Minimum inhibitory concentration in vitro against Staphylococcus aureus FDA 209P.
Assay [3] concerns Streptococcus pneumoniae. Nature of the assay: Minimum inhibitory concentration in vitro against Streptococcus pneumoniae Type III.
Assay [4] concerns Staphylococcus aureus. Nature of the assay: Minimum inhibitory concentration vitro against Staphylococcus aureus No.88.
Assay [5] deals with Enterococcus faecalis. Nature of the assay: Minimum inhibitory concentration in vitro against Enterococcus faecalis LS-101.

Results on 16 compounds are retold here after ChEMBL document CHEMBL1129851, “Synthesis and structural optimization of 7-(3,3-disubstituted-1-pyrrolidinyl)-1-cyclopropyl-6-fluoro-1,4-dihydro-8-methoxy-4-oxo-3-quinolinecarboxylic acids as antibacterial agents” (1997).

In brackets after ≈: the same amount, converted by molar mass.

Turning to `NCC1CN(c2cc3c(cc2F)c(=O)c(C(=O)O)cn3C2CC2)CCO1` (stereo not drawn), the values for the MIC in assay [1], in assay [2] and in assay [3] were 0.39 mg/L (≈ 1.08 µM), 0.2 mg/L (≈ 0.553 µM) and 0.39 mg/L (≈ 1.08 µM), respectively.

As to `COc1c(N2CC[C@](CN)(CF)C2)c(F)cc2c(=O)c(C(=O)O)cn(C3CC3)c12`, the MIC is 0.05 mg/L (≈ 0.123 µM) in assay [1]; 3.13 mg/L (≈ 7.68 µM) in assay [4]; 0.012 mg/L (≈ 0.0295 µM) in assay [2]; 0.05 mg/L (≈ 0.123 µM) in assay [5]; 0.05 mg/L (≈ 0.123 µM) in assay [3].

As to `COc1c(N2CCC(O)(CN)C2)c(F)cc2c(=O)c(C(=O)O)cn(C3CC3)c12` (stereo not drawn), the MIC in assay [1] came to 0.39 mg/L (≈ 0.996 µM); in assay [4] it was 50 mg/L (≈ 128 µM); in assay [2] it was 0.1 mg/L (≈ 0.255 µM); in assay [5] it was 0.2 mg/L (≈ 0.511 µM); in assay [3], 0.2 mg/L (≈ 0.511 µM).

`COc1c(N2CC[C@@](CN)(CF)C2)c(F)cc2c(=O)c(C(=O)O)cn(C3CC3)c12`: the MIC was determined as 0.05 mg/L (≈ 0.123 µM) in assay [1]; 0.78 mg/L (≈ 1.91 µM) in assay [4]; 0.012 mg/L (≈ 0.0295 µM) in assay [2]; 0.05 mg/L (≈ 0.123 µM) in assay [5]; 0.05 mg/L (≈ 0.123 µM) in assay [3].

On to `COc1c(N2CCC(CN)(CF)C2)c(F)cc2c(=O)c(C(=O)O)cn(C3CC3)c12` (stereo not drawn), for which the MIC in assay [1] was determined as 0.05 mg/L (≈ 0.123 µM); in assay [4], 1.56 mg/L (≈ 3.83 µM); in assay [2] it was 0.012 mg/L (≈ 0.0295 µM); in assay [5], 0.05 mg/L (≈ 0.123 µM); in assay [3], 0.05 mg/L (≈ 0.123 µM).

With `NCC1CN(c2c(F)cc3c(=O)c(C(=O)O)cn(C4CC4)c3c2F)CCO1` (stereo not drawn), the MIC stood at 0.1 mg/L (≈ 0.264 µM) in assay [1], 0.025 mg/L (≈ 0.0659 µM) in assay [2] and 0.1 mg/L (≈ 0.264 µM) in assay [3].

Regarding `O=C(O)c1cn(C2CC2)c2cc(N3CCNCC3)c(F)cc2c1=O` [CIPROFLOXACIN], the MIC in assay [4] is greater than 100 mg/L; in assay [2] it was 0.2 mg/L (≈ 0.604 µM); in assay [5], 0.2 mg/L (≈ 0.604 µM); in assay [3], 0.39 mg/L (≈ 1.18 µM).

Regarding `C[C@@H]1CN(c2c(F)c(N)c3c(=O)c(C(=O)O)cn(C4CC4)c3c2F)C[C@H](C)N1` [SPARFLOXACIN], the MIC in assay [1] was found to be 0.025 mg/L (≈ 0.0637 µM); in assay [4], 12.5 mg/L (≈ 31.9 µM); in assay [2], 0.05 mg/L (≈ 0.127 µM); in assay [5], 0.1 mg/L (≈ 0.255 µM); in assay [3], 0.1 mg/L (≈ 0.255 µM).

For the compound `COc1c(N2CCC(CF)(CN(C)C)C2)c(F)cc2c(=O)c(C(=O)O)cn(C3CC3)c12` (stereo not drawn), the MIC in assay [1] was 0.39 mg/L (≈ 0.896 µM); in assay [4], 6.25 mg/L (≈ 14.4 µM); in assay [2], 0.1 mg/L (≈ 0.23 µM); in assay [5], 0.2 mg/L (≈ 0.459 µM); in assay [3], 0.2 mg/L (≈ 0.459 µM).

Take `CNCC1(CF)CCN(c2c(F)cc3c(=O)c(C(=O)O)cn(C4CC4)c3c2OC)C1` (stereo not drawn): the minimum inhibitory concentration (MIC) was 0.1 mg/L (≈ 0.237 µM) in assay [1]; 1.56 mg/L (≈ 3.7 µM) in assay [4]; 0.025 mg/L (≈ 0.0593 µM) in assay [2]; 0.05 mg/L (≈ 0.119 µM) in assay [5]; 0.2 mg/L (≈ 0.475 µM) in assay [3].

Consider `COc1c(N2CCOC(CN)C2)c(F)cc2c(=O)c(C(=O)O)cn(C3CC3)c12` (stereo not drawn), for which the MIC in assay [1] is 0.2 mg/L (≈ 0.511 µM); in assay [4] it was 6.25 mg/L (≈ 16 µM); in assay [2], 0.025 mg/L (≈ 0.0639 µM); in assay [5], 0.05 mg/L (≈ 0.128 µM); in assay [3] it was 0.2 mg/L (≈ 0.511 µM).

Turning to `NCC1CN(c2c(F)cc3c(=O)c(C(=O)O)cn(C4CC4)c3c2Cl)CCO1` (stereo not drawn), the MIC in assay [1] came out at 0.1 mg/L (≈ 0.253 µM); in assay [2], 0.012 mg/L (≈ 0.0303 µM); in assay [3] it was 0.1 mg/L (≈ 0.253 µM).

As to `COc1c(N2CCC(C)(CN)C2)c(F)cc2c(=O)c(C(=O)O)cn(C3CC3)c12` (stereo not drawn), the MIC in assay [1] was 0.1 mg/L (≈ 0.257 µM); in assay [4], 1.56 mg/L (≈ 4.01 µM); in assay [2], 0.012 mg/L (≈ 0.0308 µM); in assay [5], 0.05 mg/L (≈ 0.128 µM); in assay [3], 0.05 mg/L (≈ 0.128 µM).

Take `NC1CCN(c2nc3c(cc2F)c(=O)c(C(=O)O)cn3-c2ccc(F)cc2F)C1` (stereo not drawn) [TOSUFLOXACIN]: the MIC in assay [1] is 0.025 mg/L (≈ 0.0618 µM); in assay [4] it was greater than 25 mg/L; in assay [2], 0.025 mg/L (≈ 0.0618 µM); in assay [5] it was 0.05 mg/L (≈ 0.124 µM); in assay [3], 0.1 mg/L (≈ 0.247 µM).

For the compound `CC1COc2c(N3CCN(C)CC3)c(F)cc3c(=O)c(C(=O)O)cn1c23` (stereo not drawn) [OFLOXACIN], the MIC in assay [1] amounted to 0.05 mg/L (≈ 0.138 µM); in assay [4], 50 mg/L (≈ 138 µM); in assay [2], 0.2 mg/L (≈ 0.553 µM); in assay [5], 0.39 mg/L (≈ 1.08 µM); in assay [3] it was 0.78 mg/L (≈ 2.16 µM).

Take `COc1c(N2CCC(CN)(CO)C2)c(F)cc2c(=O)c(C(=O)O)cn(C3CC3)c12` (stereo not drawn): the MIC in assay [1] amounted to 0.78 mg/L (≈ 1.92 µM); in assay [4], 50 mg/L (≈ 123 µM); in assay [2], 0.1 mg/L (≈ 0.247 µM); in assay [5] it was 0.2 mg/L (≈ 0.493 µM); in assay [3], 0.39 mg/L (≈ 0.962 µM).
